PMC9767310 (Journal of chemical information and modeling, 2022)
Entries after “also recorded” stand apart in the source; their conditions may differ. Structures can show the parent of a compound that is named as a salt.

Columns and labels:
αVβ3 [1] = target: T1, αVβ3 (Homo sapiens, UniProt P05106+P06756); assay: αVβ3-mediated cell adhesion to fibrinogen; type: cell-based
[2] = target: recombinant αVβ3 ectodomain (Homo sapiens, UniProt P05106+P06756); assay: Negative-stain electron microscopy of αVβ3 ectodomain conformation
αVβ3 [3] = target: T1, αVβ3; assay: Monoclonal antibody AP5 binding assay; type: cell-based

c1ccc2c(N3CCN(Cc4ccc5c(n4)NCCC5)CC3)ccnc2c1 [MSR02, 7-((4-(quinolin-4-yl)piperazin-1-yl)methyl)-1,2,3,4-tetrahydro-1,8-naphthyridine]
IC50 (αVβ3 [1]): 2000 ± 1730 nM

COc1ccc([C@H](CC(=O)O)N2CCN(CCCc3ccc4c(n3)NCCC4)C2=O)cn1 [MK-429, reference compound]
inhibition of αVβ3-mediated cell adhesion (positive control) (αVβ3 [1]; 3 nM): > 90%

OCC[C@@H]1CN(c2ccnc3ccccc23)CCN1Cc1ccc2c(n1)NCCC2 [MSR01R, (R)-2-(4-(quinolin-4-yl)-1-((5,6,7,8-tetrahydro-1,8-naphthyridin-2-yl)methyl)piperazin-2-yl)ethan-1-ol hydrochloride]
IC50 (αVβ3 [1]): 1300 ± 330 nM

Cl.Cl.O=C(NCCCc1ccc2c(n1)NCCC2)Nc1ccnc2ccccc12 [MSR03, 1-(quinolin-4-yl)-3-(3-(5,6,7,8-tetrahydro-1,8-naphthyridin-2-yl)propyl)urea dihydrochloride]
receptor extension and swing-out by negative-stain EM (in words) [2]: does not induce receptor extension and swing-out | percentage of αVβ3 in the active, extended-open conformation ([2]; 312 μM, control 5%): did not increase this percentage | IC50 (αVβ3 [1]): 1600 ± 580 nM | increase in potency vs ZINC72424116 (αVβ3 [1]; adhesion IC50): 3.5 fold | EC50 (αVβ3 [3]; EC50 (half-maximal exposure of the AP5 epitope), MSR03 dihydrochloride prepared in 1 M NaCl, n = 3): > 300000 nM | exposure of the AP5 epitope (in words) (αVβ3 [3]; HEK-αVβ3 cells): did not expose the AP5 epitope; also recorded: does not expose the epitope for the ligand-induced binding site of antibody AP5

OCC[C@H]1CN(c2ccnc3ccccc23)CCN1Cc1ccc2c(n1)NCCC2 [MSR01S, (S)-2-(4-(quinolin-4-yl)-1-((5,6,7,8-tetrahydro-1,8-naphthyridin-2-yl)methyl)-piperazin-2-yl)ethan-1-ol hydrochloride]
IC50 (αVβ3 [1]): 1000 ± 300 nM
